Results taken from PMC10525132, “Potent Antioxidant and Anti-Tyrosinase Activity of Butein and Homobutein Probed by Molecular Kinetic and Mechanistic Studies” (Antioxidants, 2023).

Tests used:
[1] = molecular target: T1, mushroom tyrosinase (mTYR) (Agaricus bisporus, UniProt C7FF04); experiment: Inhibition of mushroom tyrosinase monophenolase reaction (substrate L-tyrosine, dopachrome at 475 nm); format: biochemical; settings: for Vmax^app / IC50: 30 °C; for Vmax^app: pH 6.8, L-tyrosine; for IC50: IC50 Monophenolase; for inhibition mode, monophenolase: from M-M and Lineweaver–Burk plots; for KI′ Calc. from Km / KI′ Calc. from Vmax / KI′ Uncompetitive / Ki: monophenolase; for Ki: KI Competitive
T1 construct: purchased Sigma-Aldrich (Milan, Italy)
T1 sequence (C7FF04 1-392): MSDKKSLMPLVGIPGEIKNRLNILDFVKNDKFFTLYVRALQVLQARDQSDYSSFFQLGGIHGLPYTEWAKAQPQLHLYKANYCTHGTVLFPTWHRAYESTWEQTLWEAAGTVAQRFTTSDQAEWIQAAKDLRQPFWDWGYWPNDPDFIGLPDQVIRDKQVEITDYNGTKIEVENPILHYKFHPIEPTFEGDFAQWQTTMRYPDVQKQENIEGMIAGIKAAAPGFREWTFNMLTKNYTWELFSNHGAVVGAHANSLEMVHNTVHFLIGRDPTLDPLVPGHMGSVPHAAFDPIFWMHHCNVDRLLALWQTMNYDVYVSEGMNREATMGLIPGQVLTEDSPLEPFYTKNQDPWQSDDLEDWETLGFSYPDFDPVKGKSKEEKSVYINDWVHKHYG
Protocol: (§1) Measurements were performed at 30 °C in phosphate buffer (50 mM, pH 6.8) in polystyrene low-volume cuvettes (1.5 mL, l = 1 cm) with a double-beam spectrophotometer. […] The reaction was monitored at 475 nm for up to 60 min, following dopachrome formation. Initial velocity (V = ΔA/Δmin) was converted in μM/min according to Lambert–Beer law using the molar extinction coefficient ε = 3700 M^−1cm^−1 for dopachrome at λmax = 475 nm. Michaelis–Menten parameters (Km e Vmax) were obtained by processing initial velocity vs. substrate concentration data by non-linear fitting to M-M Equation (4), using Sigmaplot 11.0 (Systat Software Inc., San Jose, CA, USA). Linearized Lineweaver–Burk Equation (5) was used to identify the inhibition mode. In both equations, V indicates the measured initial rate of reaction, [S] is the initial substrate concentration, while Vmax and Km are, respectively, the maximum reaction rate (at saturating substrate concentration) and the M-M constant, with the substrate concentration yielding half-maximum rate.
(§2) Determination of M-M inhibition constants KI and KI′, along with assignment of the inhibition mode, is the most reliable method to accurately quantify the potency of enzyme inhibitors, as it is independent of the experimental settings, like substrate and enzyme concentrations.

[2] = molecular target: T1, mushroom tyrosinase (mTYR); experiment: Inhibition of mushroom tyrosinase diphenolase reaction (substrate L-dopa, dopachrome at 475 nm); format: biochemical; settings: for Vmax^app / IC50: 30 °C; for Vmax^app: pH 6.8, L-dopa; for IC50: IC50 Diphenolase; for Ki: KI Competitive; for inhibition mode, diphenolase: from M-M and Lineweaver–Burk plots
Protocol: as §1
(10) KI=[I]/α−1 and KI′=[I]/α^′−1 where (11) α=(Kmapp × α^′)/Km and α^′=Vmax/Vmaxapp
as §2

[3] = molecular target: mTYR (Agaricus bisporus, UniProt C7FF04); experiment: Stability toward air and mTYR, decay of concentration by UV-Vis; settings: air-saturated PBS pH 6.8, 30 °C, 7 U/ml mTYR, 0.05 and 0.1 mM
Sequence of mTYR (C7FF04 1-392): as above

[4] = Radical equilibration EPR (ReqEPR) for the O-H bond dissociation enthalpy; format: physicochemical
Protocol: Deoxygenated acetonitrile solutions containing the phenols (0.01–0.001 M) and di-tert-butyl peroxide (10% v/v) were sealed under nitrogen in a 2 mm ID suprasil quartz EPR tube. The sample was inserted in the thermostatted (30 °C) cavity of an X-band EPR spectrometer and photolyzed with a mercury–xenon lamp (240–400 nm, max 4500 mW/cm^2). Spectra were recorded with the following settings: modulation amplitude 0.2–1 Gauss, sweep width 30–60 Gauss, modulation frequency 100 kHz, frequency 9.76 GHz, sweep time 60 s, and microwave power 0.1–1 mW. Measured g-factors were corrected with respect to that of TEMPO (g = 2.0064) and of DPPH radical. In ReqEPR experiments, mixtures of TBP and butein were analyzed to obtain the molar ratio of the two equilibrating radicals by comparison of the digitized experimental spectra with computer-simulated ones, as previously described. This afforded the equilibrium constant, Keq. Different irradiation power levels (20% to 100%) and different ratios of the two phenols were tested to guarantee that the two species were at equilibrium.
The reactivity of (phenolic) chain-breaking antioxidants toward formal hydrogen atom transfer (HAT) to a radical such as peroxyl radicals is dictated by the strength of the phenolic O-H bond being broken, i.e., by its bond dissociation enthalpy (BDEOH), and by the steric hindrance in ortho position to the reactive OH [40, 41]. Indeed, there are well-established Evans–Polanyi linear free-energy correlations between the BDEOH and the inhibition rate constant kinh for phenolic antioxidants. One very accurate method to measure the BDEOH is via radical equilibration experiments using electron paramagnetic resonance spectroscopy, the ReqEPR technique. It consists of photolyzing the “unknown” phenol to be studied (^UPhOH) in a mixture with a reference phenol (^RPhOH) in the cavity of the EPR spectrometer with the addition of a peroxide (e.g., di-tert-butylperoxide) as a photochemical initiator. Analysis and deconvolution of the EPR spectrum containing both equilibrating radical species affords the equilibrium constant Keq (see Figure 3), which in turn allows determining the ∆G° of equilibration. Since it has been shown that ∆S° is negligible for such an equilibrium, this affords the BDEOH of ^UPhOH if the value is known for ^RPhOH (Figure 3A).
To convert this value into a gas-phase equivalent, it is necessary to correct for the effect of the solvent, which increases the apparent BDE value by H-bonding to the phenols (see Figure 3B). Such solvent effects can be accounted for quantitatively, as detailed in Figure 3B, by using Abraham’s solvatochromic parameters α2^H and β2^H, describing, respectively, the H-bond donating ability of the phenol and the H-bond accepting ability of the solvent. Considering that the solvent effect is negligible for TBP due to steric hindrance by the t-butyl groups in ortho [40], that α2^H for catechol is 0.73 and β2^H for acetonitrile is 0.39 [42], the DBE measured in acetonitrile must be downscaled by −1.4 kcal/mol to afford BDEOH = 78.4 ± 0.2 kcal/mol for butein in apolar solvent/gas-phase.

[5] = average over inhibitor concentrations
[6] = diphenolase, average over inhibitor concentrations
[7] = diphenolase, inhibitor 0.175 µM

SMILES: O=C(/C=C/c1ccc(O)c(O)c1)c1ccc(O)cc1O [Butein, (E)-1-(2,4-dihydroxyphenyl)-3-(3,4-dihydroxyphenyl)prop-2-en-1-one]
- Vmax^app ([1]; inhibitor 1.4 µM): 3.24 ± 0.07 µM/min
- Vmax^app ([1]; inhibitor 2.8 µM): 3.02 ± 0.05 µM/min
- Vmax^app ([1]; inhibitor 5.6 µM): 2.21 ± 0.04 µM/min
- Vmax^app ([1]; inhibitor 11.2 µM): 1.95 ± 0.07 µM/min
- IC50 ([1]; pH 6.8, L-tyrosine 0.05 mM): 45.1 ± 18.3 µM
- IC50 ([1]; pH 6.8, L-tyrosine 0.125 mM): 35.6 ± 28.4 µM
- IC50 ([1]; pH 6.8, L-tyrosine 0.25 mM): 12.9 ± 3.22 µM
- IC50 ([1]; pH 6.8, L-tyrosine 0.50 mM): 12.3 ± 2.52 µM
- IC50 ([1]; pH 6.8, L-tyrosine 1.00 mM): 10.9 ± 2.19 µM
- inhibition mode, monophenolase [1]: uncompetitive
- inhibition mode, monophenolase ([1]; listed as BU): reversible uncompetitive
- KI′ Calc. from Km [1, 5]: 10.74 ± 3.36 µM
- KI′ Calc. from Vmax [1, 5]: 9.17 ± 2.01 µM
- KI′ Uncompetitive ([1]; averaged over both calculation methods): 9.95 µM
- KI′ Uncompetitive ([1]; averaged over both calculation methods, listed as BU): 9.95 ± 2.69 µM
- KI′ Calc. from Km ([1]; inhibitor 1.4 µM): 7.47 µM
- KI′ Calc. from Vmax ([1]; inhibitor 1.4 µM): 7.44 µM
- KI′ Calc. from Km ([1]; inhibitor 2.8 µM): 10.50 µM
- KI′ Calc. from Vmax ([1]; inhibitor 2.8 µM): 10.19 µM
- KI′ Calc. from Km ([1]; inhibitor 5.6 µM): 9.60 µM
- KI′ Calc. from Vmax ([1]; inhibitor 5.6 µM): 7.55 µM
- KI′ Calc. from Km ([1]; inhibitor 11.2 µM): 15.40 µM
- KI′ Calc. from Vmax ([1]; inhibitor 11.2 µM): 11.49 µM
- Vmax^app ([2]; inhibitor 1.4 µM): 10.93 ± 0.22 µM/min
- Vmax^app ([2]; inhibitor 2.8 µM): 10.60 ± 0.88 µM/min
- Vmax^app ([2]; inhibitor 5.6 µM): 8.17 ± 0.21 µM/min
- Vmax^app ([2]; inhibitor 11.2 µM): 7.42 ± 0.26 µM/min
- IC50 ([2]; pH 6.8, L-dopa 0.05 mM): 3.76 ± 0.96 µM
- IC50 ([2]; pH 6.8, L-dopa 0.125 mM): 4.12 ± 1.39 µM
- IC50 ([2]; pH 6.8, L-dopa 0.25 mM): 5.38 ± 0.9 µM
- IC50 ([2]; pH 6.8, L-dopa 0.50 mM): 9.31 ± 0.85 µM
- IC50 ([2]; pH 6.8, L-dopa 1.00 mM): 15.2 ± 1.25 µM
- Ki [2, 6]: 3.3 ± 0.75 µM
- Ki ([2]; diphenolase, inhibitor 1.4 µM): 3.21 µM
- Ki ([2]; diphenolase, inhibitor 2.8 µM): 2.59 µM
- Ki ([2]; diphenolase, inhibitor 5.6 µM): 3.07 µM
- Ki ([2]; diphenolase, inhibitor 11.2 µM): 4.35 µM
- KI (competitive) lower than KI′ (uncompetitive) ([2]; diphenolase): about 5 fold
- KI′ Uncompetitive [2, 6]: 18.75 ± 5.15 µM
- KI′ Uncompetitive ([2]; diphenolase, inhibitor 1.4 µM): 18.04 µM
- KI′ Uncompetitive ([2]; diphenolase, inhibitor 2.8 µM): 25.24 µM
- KI′ Uncompetitive ([2]; diphenolase, inhibitor 5.6 µM): 12.68 µM
- KI′ Uncompetitive ([2]; diphenolase, inhibitor 11.2 µM): 19.05 µM
- inhibition mode, diphenolase [2]: mixed-type
- behaviour as substrate of mTYR [3]: not a significant substrate
- BDEOH ([4]; ReqEPR vs TBP, corrected for solvent to apolar solvent/gas-phase): 78.4 ± 0.2 kcal/mol
- BDEOH ([4]; ReqEPR vs TBP, corrected for solvent to apolar solvent/gas-phase, listed as butein): 78.4 kcal/mol
- BDEOH higher compared to α-TOH ([4]; difference to α-TOH): 1.3 kcal/mol
- Keq (radical equilibration with TBP) ([4]; in acetonitrile at 298 K): 1.64 ± 0.63
- BDEOH ([4]; in acetonitrile at 298 K, not corrected for solvent): 79.8 ± 0.2 kcal/mol
- BDEOH of any OH group in A ring ([4]; suggested from structure): > 86 kcal/mol

SMILES: COc1cc(/C=C/C(=O)c2ccc(O)cc2O)ccc1O [Homobutein, (E)-1-(2,4-dihydroxyphenyl)-3-(4-hydroxy-3-methoxyphenyl)prop-2-en-1-one]
- Vmax^app ([1]; inhibitor 1.4 µM): 3.83 ± 0.04 µM/min
- Vmax^app ([1]; inhibitor 2.8 µM): 3.78 ± 0.05 µM/min
- Vmax^app ([1]; inhibitor 5.6 µM): 3.63 ± 0.06 µM/min
- Vmax^app ([1]; inhibitor 11.2 µM): 3.15 ± 0.03 µM/min
- IC50 ([1]; pH 6.8, L-tyrosine 0.05 mM): 4.01 ± 0.66 µM
- IC50 ([1]; pH 6.8, L-tyrosine 0.125 mM): 4.58 ± 0.88 µM
- IC50 ([1]; pH 6.8, L-tyrosine 0.25 mM): 6.06 ± 0.95 µM
- IC50 ([1]; pH 6.8, L-tyrosine 0.50 mM): 8.75 ± 1.18 µM
- IC50 ([1]; pH 6.8, L-tyrosine 1.00 mM): 14.8 ± 1.05 µM
- Ki [1, 5]: 2.76 ± 0.7 µM
- Ki ([1]; inhibitor 1.4 µM): 2.19 µM
- Ki ([1]; inhibitor 2.8 µM): 2.24 µM
- Ki ([1]; inhibitor 5.6 µM): 2.94 µM
- Ki ([1]; inhibitor 11.2 µM): 3.67 µM
- inhibition mode, monophenolase [1]: nearly competitive
- KI′ Uncompetitive ([1]; mixed-type treatment, average): 140.53 ± 94.57 µM
- KI′ Uncompetitive ([1]; mixed-type treatment, inhibitor 1.4 µM): 268.10 µM
- KI′ Uncompetitive ([1]; mixed-type treatment, inhibitor 2.8 µM): 151.20 µM
- KI′ Uncompetitive ([1]; mixed-type treatment, inhibitor 5.6 µM): 92.40 µM
- KI′ Uncompetitive ([1]; mixed-type treatment, inhibitor 11.2 µM): 50.40 µM
- Vmax^app ([2]; inhibitor 0.175 µM): 11.48 ± 0.22 µM/min
- Vmax^app ([2]; inhibitor 0.70 µM): 11.30 ± 0.88 µM/min
- Vmax^app ([2]; inhibitor 1.4 µM): 11.10 ± 0.21 µM/min
- Vmax^app ([2]; inhibitor 5.6 µM): 10.84 ± 0.26 µM/min
- IC50 ([2]; pH 6.8, L-dopa 0.05 mM): 3.04 ± 0.84 µM
- IC50 ([2]; pH 6.8, L-dopa 0.125 mM): 3.83 ± 0.94 µM
- IC50 ([2]; pH 6.8, L-dopa 0.25 mM): 5.6 ± 1.07 µM
- IC50 ([2]; pH 6.8, L-dopa 0.50 mM): 7.57 ± 1.11 µM
- IC50 ([2]; pH 6.8, L-dopa 1.00 mM): 12.4 ± 2 µM
- Ki [2, 6]: 2.5 ± 1.56 µM
- Ki [2, 7]: 1.28 µM
- Ki ([2]; diphenolase, inhibitor 0.70 µM): 1.54 µM
- Ki ([2]; diphenolase, inhibitor 1.4 µM): 2.46 µM
- Ki ([2]; diphenolase, inhibitor 5.6 µM): 4.72 µM
- lowest concentration with clear inhibition detectable ([2]; diphenolase): 175 nM
- KI′ Uncompetitive [2, 6]: 38.24 ± 27.81 µM
- KI′ Uncompetitive [2, 7]: 16.75 µM
- KI′ Uncompetitive ([2]; diphenolase, inhibitor 0.70 µM): 26.38 µM
- KI′ Uncompetitive ([2]; diphenolase, inhibitor 1.4 µM): 30.83 µM
- KI′ Uncompetitive ([2]; diphenolase, inhibitor 5.6 µM): 79.01 µM
- inhibition mode, diphenolase [2]: nearly competitive
- behaviour as substrate of mTYR [3]: not a significant substrate
- BDEOH ([4]; estimated from the value for butein by additive contribution of substituents): 82.6 ^1 kcal/mol
- BDEOH ([4]; estimated from the value for butein by additive contribution of substituents, listed as HB): 82.6 kcal/mol
- BDEOH ([4]; estimated from the value for butein by additive contribution of substituents, listed as homobutein): ~ 82.6 kcal/mol
